In ChEMBL document CHEMBL3421627, “Synthesis and biological evaluation of novel pyrazoline derivatives as potent anti-inflammatory agents” (Bioorg Med Chem Lett, 2015):
Each block holds one compound with its values, some of them ahead of it. The source made the active and inactive calls. No cut-off for these calls is given here.

Key:
RAW264.7 [1] = assay: Anti-inflammatory activity in mouse RAW264.7 cells assessed as inhibition of LPS-induced nitric oxide production at 10 uM pre-incubated for 2 hrs before LPS stimulation for 18 hrs by Griess reagent based colorimetric method; assay type: functional
[2] = molecular target: T1, Nitric oxide synthase, inducible (Mus musculus, UniProt P29477); assay: Inhibition of iNOS in LPS-stimulated mouse RAW264.7 cells using L-Arginine substrate incubated for 2 hrs by fluorescence spectrometry; assay type: cell-based
T1 sequence (P29477 whole entry): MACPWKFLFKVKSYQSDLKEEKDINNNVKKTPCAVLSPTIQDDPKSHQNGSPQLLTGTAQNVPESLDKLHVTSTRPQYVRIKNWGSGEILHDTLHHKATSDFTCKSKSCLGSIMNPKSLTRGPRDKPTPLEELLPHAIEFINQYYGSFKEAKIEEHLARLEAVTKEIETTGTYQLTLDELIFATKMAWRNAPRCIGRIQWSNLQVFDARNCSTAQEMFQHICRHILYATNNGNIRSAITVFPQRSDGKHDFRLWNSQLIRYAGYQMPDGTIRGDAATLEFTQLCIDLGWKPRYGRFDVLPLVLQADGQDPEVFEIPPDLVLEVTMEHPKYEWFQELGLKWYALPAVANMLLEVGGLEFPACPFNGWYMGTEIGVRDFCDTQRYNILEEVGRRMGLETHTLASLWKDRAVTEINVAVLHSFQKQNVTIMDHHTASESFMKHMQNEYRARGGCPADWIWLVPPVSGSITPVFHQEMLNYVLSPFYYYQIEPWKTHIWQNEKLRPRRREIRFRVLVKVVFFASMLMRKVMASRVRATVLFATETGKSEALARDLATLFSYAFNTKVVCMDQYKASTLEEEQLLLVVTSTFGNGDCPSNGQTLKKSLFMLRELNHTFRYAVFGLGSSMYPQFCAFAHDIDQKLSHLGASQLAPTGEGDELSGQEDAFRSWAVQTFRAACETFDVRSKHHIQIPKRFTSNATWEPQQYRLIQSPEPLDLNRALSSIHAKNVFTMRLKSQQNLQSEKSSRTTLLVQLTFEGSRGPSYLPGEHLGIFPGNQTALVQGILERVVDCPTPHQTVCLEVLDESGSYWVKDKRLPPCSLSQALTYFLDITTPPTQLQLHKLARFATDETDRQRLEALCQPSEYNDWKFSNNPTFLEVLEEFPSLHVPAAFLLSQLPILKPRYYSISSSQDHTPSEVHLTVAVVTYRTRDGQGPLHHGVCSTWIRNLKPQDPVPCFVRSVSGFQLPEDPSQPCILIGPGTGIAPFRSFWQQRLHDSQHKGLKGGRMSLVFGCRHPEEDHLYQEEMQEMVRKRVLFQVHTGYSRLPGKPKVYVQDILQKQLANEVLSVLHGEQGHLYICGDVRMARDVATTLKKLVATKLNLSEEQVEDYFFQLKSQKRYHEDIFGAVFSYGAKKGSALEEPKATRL

RAW264.7 [3] = assay: Cytotoxicity against mouse RAW264.7 cells assessed as reduction in cell viability after 24 hrs in presence of LPS by MTT assay; assay type: cell-based; conditions: RAW264.7, 24 h
RAW264.7 [4] = assay: Cytotoxicity against mouse RAW264.7 cells assessed as reduction in cell viability after 24 hrs in absence of LPS by MTT assay; assay type: cell-based; conditions: RAW264.7, 24 h
Mus musculus [5] = assay: Anti-inflammatory activity in ICR mouse model of carrageenan-induced edema assessed as inhibition of paw thickness at 25 mg/kg, ip; assay type: functional, organism-based; design: dose 25 mg/kg
Mus musculus [6] = assay: Anti-inflammatory activity in ICR mouse model of carrageenan-induced edema assessed as inhibition of paw thickness at 50 mg/kg, ip; assay type: functional; conditions: route intraperitoneal
Mus musculus [7] = assay: Anti-inflammatory activity in ICR mouse model of adjuvant-induced arthritis assessed as reduction in arthritis severity scores at 25 and 50 mg/kg, po dosed once daily from day 17 after vaccination; assay type: functional, organism-based; design: dose 50 mg/kg
Mus musculus [8] = assay: Anti-inflammatory activity in ICR mouse model of adjuvant-induced arthritis assessed as reduction in histopathological changes at 50 mg/kg, po dosed once daily from day 17 after vaccination by H and E staining method; assay type: functional, organism-based; design: dose 50 mg/kg
Mus musculus [9] = assay: Anti-inflammatory activity in ICR mouse model of carrageenan-induced edema assessed as inhibition of paw thickness at 10 mg/kg, ip; assay type: functional; conditions: route intraperitoneal

SMILES: CCCS(=O)(=O)N1N=C(c2ccc(OC)c3c2OC(C)(C)C=C3)CC1c1cc(OC)c(OC)c(OC)c1 (configuration not stated)
inhibition at 10 µM (RAW264.7 [1]): 40.8%

SMILES: COc1ccc(C2=NN(C(=O)c3ccccc3F)C(c3cc(OC)c(OC)c(OC)c3)C2)c2c1C=CC(C)(C)O2 (configuration not stated)
inhibition at 10 µM (RAW264.7 [1]): 27.8%

SMILES: COc1ccc(C2=NN(C(=O)c3cccc(F)c3)C(c3cc(OC)c(OC)c(OC)c3)C2)c2c1C=CC(C)(C)O2 (configuration not stated)
inhibition at 10 µM (RAW264.7 [1]): 35.1%

IC50 [2]: 7.3 µM
SMILES: COc1ccc(C2=NN(C(C)=O)C(c3cc(OC)c(OC)c(OC)c3)C2)c2c1C=CC(C)(C)O2 (configuration not stated)
inhibition at 10 µM (RAW264.7 [1]): 89.8% | IC50 (RAW264.7 [3]): > 100 µM | IC50 (RAW264.7 [4]): > 100 µM

SMILES: COc1ccc(C(=O)N2N=C(c3ccc(OC)c4c3OC(C)(C)C=C4)CC2c2cc(OC)c(OC)c(OC)c2)cc1 (configuration not stated)
inhibition at 10 µM (RAW264.7 [1]): 78% | IC50 [2]: 24.8 µM | IC50 (RAW264.7 [3]): > 100 µM | IC50 (RAW264.7 [4]): > 100 µM | inhibition (Mus musculus [5]): Active | inhibition in vivo at 50 mg/kg (Mus musculus [6]): 54.2% | inhibition (Mus musculus [7]): Dose-dependent effect | inhibition (Mus musculus [8]): Active

SMILES: COc1ccc(C2=NN(C(=O)C(C)C)C(c3cc(OC)c(OC)c(OC)c3)C2)c2c1C=CC(C)(C)O2 (configuration not stated)
inhibition at 10 µM (RAW264.7 [1]): 54.2%

SMILES: COc1ccc(C2=NN(c3ccc(F)cc3)C(c3cc(OC)c(OC)c(OC)c3)C2)c2c1C=CC(C)(C)O2 (configuration not stated)
inhibition at 10 µM (RAW264.7 [1]): 30.8%

SMILES: COc1ccc(C2=NN(c3ccc(C(F)(F)F)cc3)C(c3cc(OC)c(OC)c(OC)c3)C2)c2c1C=CC(C)(C)O2 (configuration not stated)
inhibition at 10 µM (RAW264.7 [1]): 14.4%

SMILES: COc1ccc(C2=NN(C(=O)CCCl)C(c3cc(OC)c(OC)c(OC)c3)C2)c2c1C=CC(C)(C)O2 (configuration not stated)
inhibition at 10 µM (RAW264.7 [1]): 62.1%

SMILES: COc1ccc(C2=NN(C(=O)c3ccc(Cl)cc3)C(c3cc(OC)c(OC)c(OC)c3)C2)c2c1C=CC(C)(C)O2 (configuration not stated)
inhibition at 10 µM (RAW264.7 [1]): 34.7%

SMILES: COc1ccc(C2=NN(c3ccc(S(N)(=O)=O)cc3)C(c3cc(OC)c(OC)c(OC)c3)C2)c2c1C=CC(C)(C)O2 (configuration not stated)
inhibition at 10 µM (RAW264.7 [1]): 30.5%

SMILES: COc1ccc(C2=NN(c3ccc(C(=O)O)cc3)C(c3cc(OC)c(OC)c(OC)c3)C2)c2c1C=CC(C)(C)O2 (configuration not stated)
inhibition at 10 µM (RAW264.7 [1]): 19.4%

SMILES: COc1ccc(C2=NN(S(=O)(=O)c3cc(C)cc(C)c3)C(c3cc(OC)c(OC)c(OC)c3)C2)c2c1C=CC(C)(C)O2 (configuration not stated)
inhibition at 10 µM (RAW264.7 [1]): 26.9%

SMILES: COc1ccc(C2=NN(S(=O)(=O)c3ccc(C)cc3)C(c3cc(OC)c(OC)c(OC)c3)C2)c2c1C=CC(C)(C)O2 (configuration not stated)
inhibition at 10 µM (RAW264.7 [1]): 35.9%

SMILES: COc1ccc(C2=NN(C(=O)c3ccc(C(F)(F)F)cc3)C(c3cc(OC)c(OC)c(OC)c3)C2)c2c1C=CC(C)(C)O2 (configuration not stated)
inhibition at 10 µM (RAW264.7 [1]): 23.1%

IC50 [2]: 4.5 µM
SMILES: COc1ccc2c(c1)c(CC(=O)O)c(C)n2C(=O)c1ccc(Cl)cc1 [INDOMETHACIN]
inhibition at 10 µM (RAW264.7 [1]): 60.6% | IC50 (RAW264.7 [3]): 9.2 µM | IC50 (RAW264.7 [4]): 10.7 µM | inhibition in vivo at 10 mg/kg (Mus musculus [9]): 32%

SMILES: COc1ccc(C2=NN(S(=O)(=O)c3ccc(F)cc3)C(c3cc(OC)c(OC)c(OC)c3)C2)c2c1C=CC(C)(C)O2 (configuration not stated)
inhibition at 10 µM (RAW264.7 [1]): 23.2%

SMILES: COc1ccc(C2=NN(C(=O)c3ccccc3C(F)(F)F)C(c3cc(OC)c(OC)c(OC)c3)C2)c2c1C=CC(C)(C)O2 (configuration not stated)
inhibition at 10 µM (RAW264.7 [1]): 18.9%

SMILES: COc1ccc(C2=NN(S(=O)(=O)c3ccc([N+](=O)[O-])cc3)C(c3cc(OC)c(OC)c(OC)c3)C2)c2c1C=CC(C)(C)O2 (configuration not stated)
inhibition at 10 µM (RAW264.7 [1]): 41%

SMILES: CCS(=O)(=O)N1N=C(c2ccc(OC)c3c2OC(C)(C)C=C3)CC1c1cc(OC)c(OC)c(OC)c1 (configuration not stated)
inhibition at 10 µM (RAW264.7 [1]): 42.5%

SMILES: COc1ccc(C2=NN(C(=O)c3cc(OC)c(OC)c(OC)c3)C(c3cc(OC)c(OC)c(OC)c3)C2)c2c1C=CC(C)(C)O2 (configuration not stated)
inhibition at 10 µM (RAW264.7 [1]): 57.2%

SMILES: COc1ccc(C2=NN(S(=O)(=O)C3CC3)C(c3cc(OC)c(OC)c(OC)c3)C2)c2c1C=CC(C)(C)O2 (configuration not stated)
inhibition at 10 µM (RAW264.7 [1]): 31.9%

SMILES: COc1ccc(C2=NN(C(=O)c3cccc(C(F)(F)F)c3)C(c3cc(OC)c(OC)c(OC)c3)C2)c2c1C=CC(C)(C)O2 (configuration not stated)
inhibition at 10 µM (RAW264.7 [1]): 22.4%

SMILES: COc1ccc(C2=NN(C(=O)c3cccc(Cl)c3)C(c3cc(OC)c(OC)c(OC)c3)C2)c2c1C=CC(C)(C)O2 (configuration not stated)
inhibition at 10 µM (RAW264.7 [1]): 29.1%

SMILES: COc1ccc(C2=NNC(c3cc(OC)c(OC)c(OC)c3)C2)c2c1C=CC(C)(C)O2 (configuration not stated)
inhibition at 10 µM (RAW264.7 [1]): 49.2%

IC50 [2]: 2.5 µM
SMILES: COc1ccc(C2=NN(C(=O)CCl)C(c3cc(OC)c(OC)c(OC)c3)C2)c2c1C=CC(C)(C)O2 (configuration not stated)
inhibition at 10 µM (RAW264.7 [1]): 96.7% | IC50 (RAW264.7 [3]): 19.3 µM | IC50 (RAW264.7 [4]): 30.8 µM

SMILES: COc1ccc(C2=NN(c3ccc([N+](=O)[O-])cc3)C(c3cc(OC)c(OC)c(OC)c3)C2)c2c1C=CC(C)(C)O2 (configuration not stated)
inhibition at 10 µM (RAW264.7 [1]): 15.7%

SMILES: CCC(=O)N1N=C(c2ccc(OC)c3c2OC(C)(C)C=C3)CC1c1cc(OC)c(OC)c(OC)c1 (configuration not stated)
inhibition at 10 µM (RAW264.7 [1]): 65.9%

SMILES: COc1ccc(C2=NN(C(=O)c3ccc(F)cc3)C(c3cc(OC)c(OC)c(OC)c3)C2)c2c1C=CC(C)(C)O2 (configuration not stated)
inhibition at 10 µM (RAW264.7 [1]): 17.5%

SMILES: COc1ccc(C2=NN(c3ccc(C#N)cc3)C(c3cc(OC)c(OC)c(OC)c3)C2)c2c1C=CC(C)(C)O2 (configuration not stated)
inhibition at 10 µM (RAW264.7 [1]): 40.8%
